Assay results published in article PMC10793102 (Acta Pharmaceutica Sinica. B, 2023).
Read-outs that look alike come from different tables or passages of the source.

Key:
[1] = test system: phosphorylation of RIPK1, RIPK3 and MLKL; assay: Western blotting of necroptotic signaling in L929 cells; type: cell-based, mouse; details: TNFα (40 ng/mL) and SM164 (25 nmol/L), 15 h, titration
Ripk1K612R/K612R mice = type: in vivo, mouse; details: 10 or 20 mpk po QD, 40 days
p-S345 MLKL = assay: Pharmacodynamic study in SIRS mouse model, p-MLKL immunostaining; type: in vivo; details: 2 mpk, 8 h after TNFα (20 μg)
RIPK1 = type: cell-based, human
PK study in rats = type: in vivo; details: SD, rat, plasma
L929 = assay: Cell viability assay, protection from necroptosis in L929 cells; type: cell-based, mouse; details: Mus musculus, L929, 16 h
PK study in mice = type: in vivo; details: male, ICR, mouse, plasma
hRIPK3 = hRIPK3 (Homo sapiens, UniProt Q9Y572); assay: In vitro RIPK3 kinase activity assay; type: biochemical
Sequence of hRIPK3 (Q9Y572 whole entry): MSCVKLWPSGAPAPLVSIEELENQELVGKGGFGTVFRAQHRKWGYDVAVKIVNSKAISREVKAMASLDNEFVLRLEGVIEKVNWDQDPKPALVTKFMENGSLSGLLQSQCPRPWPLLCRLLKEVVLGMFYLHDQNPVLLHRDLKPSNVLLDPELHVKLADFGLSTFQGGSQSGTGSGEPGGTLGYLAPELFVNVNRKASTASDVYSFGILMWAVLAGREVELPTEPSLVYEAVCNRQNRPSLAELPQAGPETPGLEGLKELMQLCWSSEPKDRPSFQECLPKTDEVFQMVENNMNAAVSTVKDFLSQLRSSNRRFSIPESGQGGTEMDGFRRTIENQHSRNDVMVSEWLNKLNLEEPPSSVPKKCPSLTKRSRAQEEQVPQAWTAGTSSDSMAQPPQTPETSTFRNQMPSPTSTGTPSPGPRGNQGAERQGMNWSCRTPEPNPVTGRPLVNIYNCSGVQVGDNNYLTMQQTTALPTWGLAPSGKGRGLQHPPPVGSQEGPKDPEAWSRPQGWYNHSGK

hRIPK1 = biological target: T1, hRIPK1 (Homo sapiens, UniProt Q13546); assay: In vitro RIPK1 kinase activity assay; type: biochemical; details: Enzymatic IC50s RIPK1, hRIPK1 enzymatic assay
T1 sequence (Q13546 1-671): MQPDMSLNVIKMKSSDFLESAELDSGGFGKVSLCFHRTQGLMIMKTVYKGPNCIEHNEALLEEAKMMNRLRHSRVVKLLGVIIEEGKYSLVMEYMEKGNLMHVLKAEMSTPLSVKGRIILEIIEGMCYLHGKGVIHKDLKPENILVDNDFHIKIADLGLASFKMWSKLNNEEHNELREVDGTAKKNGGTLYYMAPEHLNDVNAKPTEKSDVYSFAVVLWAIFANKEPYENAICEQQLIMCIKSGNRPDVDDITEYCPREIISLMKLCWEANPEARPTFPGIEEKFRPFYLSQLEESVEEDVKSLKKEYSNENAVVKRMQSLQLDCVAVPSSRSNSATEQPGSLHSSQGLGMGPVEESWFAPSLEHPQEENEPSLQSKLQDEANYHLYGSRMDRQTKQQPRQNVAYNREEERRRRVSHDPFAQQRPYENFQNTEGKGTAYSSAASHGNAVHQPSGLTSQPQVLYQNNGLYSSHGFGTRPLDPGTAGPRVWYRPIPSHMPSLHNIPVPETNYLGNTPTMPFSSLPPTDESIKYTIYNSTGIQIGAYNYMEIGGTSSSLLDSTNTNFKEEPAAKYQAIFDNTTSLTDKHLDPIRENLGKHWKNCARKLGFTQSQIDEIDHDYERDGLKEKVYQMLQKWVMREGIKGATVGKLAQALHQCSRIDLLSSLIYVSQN

SARS-CoV-2 = type: cell-based; details: 5 μmol/L, 48 h, human lung organoids
RA symptoms = assay: RA mouse model induced by collagen antibodies and LPS; type: in vivo, BALB/c male mice; details: 15 or 30 mpk po daily, 8 days
FADD−/− Jurkat = assay: Cell viability assay, protection from necroptosis in FADD−/− Jurkat cells; type: cell-based; details: Homo sapiens, 16 h
p-S166 RIPK1 = assay: Pharmacodynamic study in SIRS mouse model, p-RIPK1 immunostaining; type: in vivo; details: 1 mpk, 8 h after TNFα (20 μg)
[2] = test system: TNFα-induced systemic inflammatory response syndrome; assay: TNFα-induced SIRS mouse model; type: in vivo, C57BL/6J male mice; details: TNFα 10 μg iv
TEL-TRKA fusion = TEL-TRKA fusion (Homo sapiens, UniProt P04629+P41212); assay: Anti-proliferation in engineered Ba/F3 cells dependent on TEL-TRKA; type: cell-based; details: read-out: IC50 anti-proliferative effect, TEL-TRKA Ba/F3; 72 h
Sequence of TEL-TRKA fusion (P04629 510-781 limits assumed, one chain of several): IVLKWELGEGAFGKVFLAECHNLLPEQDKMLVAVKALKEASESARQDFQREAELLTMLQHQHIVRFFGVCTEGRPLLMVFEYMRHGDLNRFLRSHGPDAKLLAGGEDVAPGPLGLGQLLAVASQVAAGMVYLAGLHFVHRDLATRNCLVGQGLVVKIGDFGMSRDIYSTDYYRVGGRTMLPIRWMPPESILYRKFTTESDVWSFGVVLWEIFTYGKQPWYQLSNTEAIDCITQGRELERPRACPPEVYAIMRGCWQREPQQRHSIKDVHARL

## C[C@@H](c1ccc(-n2cnc3c(N)ncnc32)cc1)N1CCc2nn(C)c(Cc3ccccc3)c2C1=O [compound 62, (S)-5-(1-(4-(6-Amino-9H-purin-9-yl)phenyl)ethyl)-3-benzyl-2-methyl-2,5,6,7-tetrahydro-4H-pyrazolo[4,3-c]pyridin-4-one]
[1]
  phosphorylation cascade (Western blot), L929: almost completely blocked the phosphorylation cascade at 40 nmol/L
Ripk1K612R/K612R mice
  adverse effects during long-term treatment: no adverse effects had been observed
  colorectal stricture, splenomegaly and thymus hyperplasia symptoms in IBD mice: significantly alleviated
Ripk1K612R/K612R mice; vs control group
  diarrhea and weight loss symptoms in IBD mice: significantly reduced diarrhea and weight loss symptoms
p-S345 MLKL
  phosphorylation levels of MLKL in mouse organs: significantly suppressed
RIPK1
  activation of RIPK1 in SARS-CoV-2 infected human lung organoids: completely abolished the activation of RIPK1
PK study in rats; po, 5 mg/kg
  Tmax: 0.5 h
  bioavailability: 34.1%
  half-life: 4.19 h
PK study in rats; male, iv, 0.5 mg/kg
  AUC(0-inf): 397 ng·h/mL
  AUC(0-t): 390 ng·h/mL
  MRT inf: 1.03 h
  Vd: 0.77 L/kg
  clearance: 13.3 mL/min/kg
  half-life: 0.91 h
PK study in rats; male, po, 5 mg/kg
  AUC(0-inf): 2250 ng·h/mL
  AUC(0-t): 2200 ng·h/mL
  Cmax: 505 ng/mL
  MRT inf: 6.82 h
L929; read-out: EC50 L929 T + S
  EC50: 1.3 nM
L929; read-out: EC50 L929 TNFα
  EC50: 0.2 nM
PK study in mice; iv, 0.5 mg/kg
  AUC(0-inf): 476 ng·h/mL
  AUC(0-t): 471 ng·h/mL
  MRT inf: 1.49 h
  Vd: 0.94 L/kg
  clearance: 10 mL/min/kg
  half-life: 1.29 h
PK study in mice; po, 5 mg/kg
  AUC(0-inf): 6520 ng·h/mL
  AUC(0-t): 6500 ng·h/mL
  Cmax: 1980 ng/mL
  MRT inf: 2.81 h
  Tmax: 0.5 h
  bioavailability: 82.2%
  half-life: 3.86 h
hRIPK3
  IC50: 730 nM
hRIPK3; ratio of enzymatic IC50s
  fold less potent against hRIPK3 than hRIPK1: at least 200 fold
hRIPK1
  IC50: 3.5 nM
SARS-CoV-2
  antiviral effects (SARS-CoV-2 N protein levels): very strong antiviral effects compared to reported RIPK1i
RA symptoms
  RA symptoms (paw edema, erythema, joint stiffness): effectively eliminate most RA symptoms
  bodyweight in RA mice: without affecting the bodyweight
FADD−/− Jurkat; read-out: EC50 FADD−/− Jurkat T + S
  EC50: 0.1 nM
FADD−/− Jurkat; read-out: EC50 FADD−/− Jurkat TNFα
  EC50: 0.02 nM
p-S166 RIPK1
  TNFα-induced activation of RIPK1 in mouse organs: almost eliminated TNFα-induced activation of RIPK1 in mouse organs
[2]; 1 mpk (po)
  symptoms (hypothermia) in SIRS mice: almost eliminated the symptoms
[2]; 1 mpk (po), n = 7
  survival in SIRS mice: protected all mice from the fatality
[2]; 2 mpk (po)
  acute hypothermia in SIRS mice: completely mitigated the acute hypothermia
TEL-TRKA fusion
  IC50: 634 nM
